# Laboratory results as given in patent US7323447B2, “Hepatitis C virus inhibitors” (Bristol-Myers Squibb Company, priority 2005, dated 2008).
# Like-named read-outs stand apart in the source and are kept apart here.
# What was measured:
# [1] = system: HCV replicon in HUH-7 cells; assay: HCV replicon FRET assay; assay type: cell-based, Hepatitis C virus (strain 1b); conditions: Hepatitis C virus
# How it was run: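 HUH-7 cells carrying a genotype 1b subgenomic neo replicon (NS3–NS5B) treated 4 days at 37 °C with compound in 0.5% DMSO final. CC50 from alamarBlue fluorescence after 4 h; cells then lysed with FRET protease substrate at 10 μM final and read kinetically at 340/490 nm to give EC50.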
# [2] = biological target: T1, porcine pancreatic elastase (PPE) (Sus scrofa, UniProt P00772); assay: Specificity assay, porcine pancreatic elastase; assay type: biochemical; conditions: read-out: PPE activity in the specificity assays (IC50)
# T1 construct: purchased Sigma or EMDbiosciences
# Protocol: The specificities of compounds of the present disclosure were determined against a variety of serine proteases: human neutrophil elastase (HNE), porcine pancreatic elastase (PPE) and human pancreatic chymotrypsin and one cysteine protease: human liver cathepsin B. In all cases, a 96-well plate format protocol using colorimetric p-nitroaniline (pNA) substrate or fluorometric Amino-Methyl-Coumarin (AMC) substrate, specific for each enzyme was used as described previously (PCT Patent Application No. WO 00/09543) with some modifications. All enzymes were purchased from Sigma or EMDbiosciences while the substrates were from Bachem.
# Each pNA assay included a 2 hours enzyme-inhibitor pre-incubation at room temperature followed by addition of substrate and hydrolysis to ˜15% conversion as measured on a Spectramax Pro microplate reader. The cathepsin B assay was initiated by adding substrate to a 10 min enzyme-inhibitor pre-incubation at room temperature, and the assay plate measured immediately using the Cytofluor Series 4000. Compound concentrations varied from 100 to 0.4 μM depending on their potency. […]
# The percentage of inhibition was calculated using the formula: [1−((UVinh−UVblank)/(UVctl−UVblank))]×100 […]
# T1 sequence (P00772 27-266): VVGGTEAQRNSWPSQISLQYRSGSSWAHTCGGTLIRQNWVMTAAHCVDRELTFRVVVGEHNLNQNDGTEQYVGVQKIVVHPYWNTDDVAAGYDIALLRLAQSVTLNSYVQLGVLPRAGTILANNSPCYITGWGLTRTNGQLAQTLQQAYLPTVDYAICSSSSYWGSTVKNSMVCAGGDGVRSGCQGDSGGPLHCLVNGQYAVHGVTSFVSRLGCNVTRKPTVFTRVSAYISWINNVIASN
compound,measurement,setting,value
C=C[C@@H]1C[C@]1(NC(=O)[C@@H]1C[C@@H](OC(=O)N2Cc3cccc(F)c3C2)CN1C(=O)[C@@H](OC(=O)NC(C)(C)C)C(C)(C)C)C(=O)NS(=O)(=O)C1CC1 [Example 56Compound 56],EC50,"[1]; Huh-7, 96 h, replicon FRET assay, HUH-7, 4 days, read-out: EC50 value in the replicon FRET assay",742 nM
same,EC50,"[1]; Huh-7, read-out: EC50 Range, HCV replicon cell assay, Table 1",500 to 5000 nM
same,IC50,[2],> 100000 nM
